Measured values: patent US20260248134A1, “A METHOD FOR CONTROLLING WEEDS” (UPL MAURITIUS LIMITED, priority 2023, published 2026)

Key:
Assay type in all cases: in vivo
[1] = system: Ipomoea hederifolia; experiment: Control of Ipomoea hederifolia weed by asulam alone, with adjuvant, with additional herbicide (Example 1); conditions: 4500 g a.i/ha
Experimental: (§1) The effect of application of asulam alone, asulam along with an adjuvant, and asulam along with an additional herbicide was observed on the growth of Ipomoea hederifolia weed at 42, 49, 56 and 63 DAA (days after application). The percentage (%) control of weeds was evaluated to assess the efficacy of the compositions and the same has been disclosed in Table 1. Untreated control was also compared, wherein no herbicidal composition was applied and thus, no control of weeds was observed.

[2] = system: Raphanus raphanistrum; experiment: Control of Raphanus raphanistrum weed by asulam alone, with adjuvant, with additional herbicide (Example 2); conditions: 4500 g a.i/ha
Experimental: as §1, with “Raphanus raphanistrum” for “Ipomoea hederifolia”, “2.” for “1.”

[3] = system: Avena strigose; experiment: Control of Avena strigose weed by asulam alone, with adjuvant, with additional herbicide (Example 3); conditions: 4500 g a.i/ha
Experimental: as §1, with “Avena strigose” for “Ipomoea hederifolia”, “3.” for “1.”

[4] = system: Ambrosia artemisifolia; experiment: Control of Ambrosia artemisifolia weed at different application rates (Example 4)
From the text: The effect of application of asulam was observed on the growth of Ambrosia artemisifolia weed at 28, 35 and 49 DAA (days after application) at different application rates. The percentage (%) control of weeds has been evaluated and disclosed in Table 4.

[5] = system: Megathyrsus maximus; experiment: Control of Megathyrsus maximus weed at different application rates (Example 5)
From the text: The effect of application of asulam was observed on the growth of Megathyrsus maximus weed at 14 and 21 DAA (days after application) at different application rates. The percentage (%) control of weeds has been evaluated and disclosed in Table 5.

[6] = system: Ipomoea hederifolia; experiment: Control of Ipomoea hederifolia weed at different application rates (Example 6)
From the text: The effect of application of asulam was observed on the growth of Ipomoea hederifolia weed at 21, 28 and 35 DAA (days after application) at different application rates. The percentage (%) control of weeds has been evaluated and disclosed in Table 6.

[7] = system: Raphanus raphanistrum; experiment: Control of Raphanus raphanistrum weed at different application rates (Example 7)
From the text: The effect of application of asulam was observed on the growth of Raphanus raphanistrum weed at 14, 21 and 28 DAA (days after application) at different application rates. The percentage (%) control of weeds has been evaluated and disclosed in Table 7.

[8] = system: Avena strigose; experiment: Control of Avena strigose weed at different application rates (Example 8)
From the text: The effect of application of asulam was observed on the growth of Avena strigose weed at 28, 35 and 49 DAA (days after application) at different application rates. The percentage (%) control of weeds has been evaluated and disclosed in Table 8.

[9] = system: Digitaria insularis; experiment: Control of weeds at pre-emergence stage (Example 9)
From the text: The effect of application of asulam was observed on the growth of weeds at pre-emergence stage for different application rates. The percentage (%) control of weeds has been evaluated and disclosed in Table 9.

`COC(=O)NS(=O)(=O)c1ccc(N)cc1` [Asulam, asulam] was tested, and the “Control of Ipomoea hederifolia” value ([1]; 42 DAA) was 13.8%, the “Control of Ipomoea hederifolia” value ([1]; 49 DAA) was 11.3% and the “Control of Ipomoea hederifolia” value ([1]; 56 DAA) was 8.8%. For the same compound, the “Control of Raphanus raphanistrum” value ([2]; 42 DAA) was 71.3%, the “Control of Raphanus raphanistrum” value ([2]; 49 DAA) was 68.8% and the “Control of Raphanus raphanistrum” value ([2]; 56 DAA) was 66.3%. The “Control of Avena strigose” value ([3]; 42 DAA) was 47.5%, the “Control of Avena strigose” value ([3]; 49 DAA) was 43.8% and the “Control of Avena strigose” value ([3]; 56 DAA) was 37.5%. For the same compound, the “Control of Ambrosia Artemisifolia” value ([4]; 1200 g a.i/ha, 28 DAA) was 86%, the “Control of Ambrosia Artemisifolia” value ([4]; 1200 g a.i/ha, 35 DAA) was 87% and the “Control of Ambrosia Artemisifolia” value ([4]; 1200 g a.i/ha, 49 DAA) was 90%. The “Control of Ambrosia Artemisifolia” value ([4]; 1500 g a.i/ha, 28 DAA) was 91%, the “Control of Ambrosia Artemisifolia” value ([4]; 1500 g a.i/ha, 35 DAA) was 90% and the “Control of Ambrosia Artemisifolia” value ([4]; 1500 g a.i/ha, 49 DAA) was 91%. For the same compound, the “Control of Ambrosia Artemisifolia” value ([4]; 2250 g a.i/ha, 28 DAA) was 93%, the “Control of Ambrosia Artemisifolia” value ([4]; 2250 g a.i/ha, 35 DAA) was 94% and the “Control of Ambrosia Artemisifolia” value ([4]; 2250 g a.i/ha, 49 DAA) was 99%. The “Control of Ambrosia Artemisifolia” value ([4]; 2500 g a.i/ha, 28 DAA) was 92%, the “Control of Ambrosia Artemisifolia” value ([4]; 2500 g a.i/ha, 35 DAA) was 93% and the “Control of Ambrosia Artemisifolia” value ([4]; 2500 g a.i/ha, 49 DAA) was 99%. The “Control of Megathyrsus maximus” value ([5]; 3200 g a.i/ha, 14 DAA) was 79%, the “Control of Megathyrsus maximus” value ([5]; 3200 g a.i/ha, 21 DAA) was 85% and the “Control of Megathyrsus maximus” value ([5]; 3600 g a.i/ha, 14 DAA) was 80%. The “Control of Megathyrsus maximus” value ([5]; 3600 g a.i/ha, 21 DAA) was 86%, the “Control of Megathyrsus maximus” value ([5]; 4000 g a.i/ha, 14 DAA) was 76% and the “Control of Megathyrsus maximus” value ([5]; 4000 g a.i/ha, 21 DAA) was 85%. For the same compound, the “Control of Ipomoea hederifolia” value ([6]; 1800 g a.i/ha, 21 DAA) was 63%, the “Control of Ipomoea hederifolia” value ([6]; 1800 g a.i/ha, 28 DAA) was 77% and the “Control of Ipomoea hederifolia” value ([6]; 1800 g a.i/ha, 35 DAA) was 76%. For the same compound, the “Control of Ipomoea hederifolia” value ([6]; 2250 g a.i/ha, 21 DAA) was 71%, the “Control of Ipomoea hederifolia” value ([6]; 2250 g a.i/ha, 28 DAA) was 83% and the “Control of Ipomoea hederifolia” value ([6]; 2250 g a.i/ha, 35 DAA) was 85%. For the same compound, the “Control of Ipomoea hederifolia” value ([6]; 2500 g a.i/ha, 21 DAA) was 70%, the “Control of Ipomoea hederifolia” value ([6]; 2500 g a.i/ha, 28 DAA) was 84% and the “Control of Ipomoea hederifolia” value ([6]; 2500 g a.i/ha, 35 DAA) was 88%. The “Control of Raphanus raphanistrum” value ([7]; 1800 g a.i/ha, 14 DAA) was 61%, the “Control of Raphanus raphanistrum” value ([7]; 1800 g a.i/ha, 21 DAA) was 69% and the “Control of Raphanus raphanistrum” value ([7]; 1800 g a.i/ha, 28 DAA) was 82%. The “Control of Raphanus raphanistrum” value ([7]; 2250 g a.i/ha, 14 DAA) was 63%, the “Control of Raphanus raphanistrum” value ([7]; 2250 g a.i/ha, 21 DAA) was 73% and the “Control of Raphanus raphanistrum” value ([7]; 2250 g a.i/ha, 28 DAA) was 84%. For the same compound, the “Control of Raphanus raphanistrum” value ([7]; 2500 g a.i/ha, 14 DAA) was 66%, the “Control of Raphanus raphanistrum” value ([7]; 2500 g a.i/ha, 21 DAA) was 77% and the “Control of Raphanus raphanistrum” value ([7]; 2500 g a.i/ha, 28 DAA) was 88%. The “Control of Avena strigose” value ([8]; 1200 g a.i/ha, 28 DAA) was 81%, the “Control of Avena strigose” value ([8]; 1200 g a.i/ha, 35 DAA) was 84% and the “Control of Avena strigose” value ([8]; 1200 g a.i/ha, 49 DAA) was 81%. For the same compound, the “Control of Avena strigose” value ([8]; 1500 g a.i/ha, 28 DAA) was 86%, the “Control of Avena strigose” value ([8]; 1500 g a.i/ha, 35 DAA) was 89% and the “Control of Avena strigose” value ([8]; 1500 g a.i/ha, 49 DAA) was 89%. The “Control of Avena strigose” value ([8]; 1800 g a.i/ha, 28 DAA) was 96%, the “Control of Avena strigose” value ([8]; 1800 g a.i/ha, 35 DAA) was 99% and the “Control of Avena strigose” value ([8]; 1800 g a.i/ha, 49 DAA) was 99%. The “Control of Avena strigose” value ([8]; 2250 g a.i/ha, 28 DAA) was 95%, the “Control of Avena strigose” value ([8]; 2250 g a.i/ha, 35 DAA) was 100% and the “Control of Avena strigose” value ([8]; 2250 g a.i/ha, 49 DAA) was 100%. For the same compound, the “Control of Avena strigose” value ([8]; 2500 g a.i/ha, 28 DAA) was 98%, the “Control of Avena strigose” value ([8]; 2500 g a.i/ha, 35 DAA) was 100% and the “Control of Avena strigose” value ([8]; 2500 g a.i/ha, 49 DAA) was 100%. The “percentage (%) control of weeds” value ([9]; 1000 g a.i/ha, 28 DAA) was 94%, the “percentage (%) control of weeds” value ([9]; 1000 g a.i/ha, 35 DAA) was 98% and the “percentage (%) control of weeds” value ([9]; 1000 g a.i/ha, 49 DAA) was 100%. For the same compound, the “percentage (%) control of weeds” value ([9]; 1200 g a.i/ha, 28 DAA) was 98%, the “percentage (%) control of weeds” value ([9]; 1200 g a.i/ha, 35 DAA) was 100% and the “percentage (%) control of weeds” value ([9]; 1200 g a.i/ha, 49 DAA) was 100%. The “percentage (%) control of weeds” value ([9]; 1500 g a.i/ha, 28 DAA) was 99%.
